Laboratory results from ChEMBL document CHEMBL6121000, “Corosolic acid and its derivatives targeting MCCC1 against insulin resistance and their hypoglycemic effect on type 2 diabetic mice” (Eur J Med Chem, 2025).
Values after ≈ are worked out from the molar mass of the structure shown. Active and inactive are the calls of the source. No cut-off for these calls is given here.

Tests used:
Mus musculus [1] = test: Hypoglycemic activity in 12 hr-fasted STZ-induced diabetic C57BL/6J mouse model assessed as decrease in blood glucose level at 20 mg/kg, po measured for 30 to 90 mins by insulin tolerance test; format: functional, organism-based; details: time 30-90 min
HepG2 [2] = test: Induction of glucose uptake in human HepG2 cells assessed as increase in GlcN-reduced AKT phosphorylation at 40 uM preincubated for 1 hr followed by GlcN addition measured after 18 hrs in presence of VPA by Western blot analysis; format: functional, cell-based; details: time 19.0 hrs
HepG2 [3] = test: Inhibition of insulin resistance-associated inflammation in human HepG2 cells assessed as increase in GlcN-reduced I-kaapaB-alpha level at 2.5 to 20 uM preincubated for 1 hr followed by GlcN addition measured after 24 hrs by Western blot analysis; format: functional, cell-based; details: dose 2.5-20 µM
Mus musculus [4] = test: Hypoglycemic activity in HFD-fed STZ-induced diabetic C57BL/6J mouse model assessed as decrease in blood glucose level at 10 to 20 mg/kg, po administered everyday for 3 weeks; format: functional, organism-based; details: dose 10-20 mg/kg
HepG2 [5] = test: Lipid lowering activity in human HepG2 cells assessed as inhibition of FFA-induced triglyceride content at 20 uM preincubated for 1 hr followed by FFA treatment for 24 hrs relative to control; format: functional
HepG2 [6] = test: Lipid lowering activity in human HepG2 cells assessed as reduction in FFA-induced triglyceride content at 20 uM preincubated for 1 hr followed by FFA treatment for 24 hrs; format: functional, cell-based; details: time 25.0 hrs
Mus musculus [7] = test: Hypoglycemic activity in HFD-fed STZ-induced diabetic C57BL/6J mouse model assessed as increase in GLUT4 level in liver at 10 to 20 mg/kg, po administered everyday for 3 weeks by Western blot analysis; format: functional, organism-based; details: dose 10-20 mg/kg
Mus musculus [8] = test: Hypoglycemic activity in HFD-fed STZ-induced diabetic C57BL/6J mouse model assessed as increase in hepatic glycogen synthesis at 10 to 20 mg/kg, po administered everyday for 3 weeks; format: functional, organism-based; details: dose 10-20 mg/kg
[9] = Toxicity in Sprague-Dawley rat assessed as damage in spleen at 20 mg/kg, po for 5 days; format: organism-based; details: in vivo, 120 h, time 5 day
HepG2 [10] = test: Inhibition of insulin resistance in human HepG2 cells assessed as restoration of GlcN-reduced MCCC1 level at 40 uM preincubated for 1 hr followed by GlcN treatment for 18 hrs in presence of VPA by Western blot analysis; format: functional, cell-based; details: time 19.0 hrs
Mus musculus [11] = test: Hypoglycemic activity in HFD-fed STZ-induced diabetic C57BL/6J mouse model assessed as reversal of diabetes-reduced MCCC1 level in liver at 10 to 20 mg/kg, po administered everyday for 3 weeks by Western blot analysis; format: functional, organism-based; details: dose 10-20 mg/kg
[12] = Toxicity in Sprague-Dawley rat assessed as damage in colon at 20 mg/kg, po for 5 days; format: organism-based; details: in vivo, 120 h, time 5 day
Mus musculus [13] = test: Hypoglycemic activity in HFD-fed STZ-induced diabetic C57BL/6J mouse model assessed as improvement in weight loss at 10 to 20 mg/kg, po administered everyday for 3 weeks; format: functional, organism-based; details: dose 10-20 mg/kg
[14] = Toxicity in Sprague-Dawley rat assessed as damage in lungs at 20 mg/kg, po for 5 days; format: organism-based; details: in vivo, 120 h, time 5 day
HepG2 [15] = test: Inhibition of insulin resistance in human HepG2 cells assessed as restoration of GlcN-reduced MCCC1 level at 40 uM preincubated for 1 hr followed by GlcN treatment for 18 hrs by Western blot analysis; format: functional, cell-based; details: time 19.0 hrs
HEK293 = test: Cytotoxicity against HEK293 cells assessed as cell viability at 40 to 320 uM incubated for 24 hrs by CCK8 assay relative to control; format: toxicity, cell-based; details: human, hek293, 24 h, dose 40-320 µM
[16] = biological target: T1, Methylcrotonoyl-CoA carboxylase subunit alpha, mitochondrial (Homo sapiens) (UniProt Q96RQ3); test: Binding affinity to MCCC1 in human HepG2 cells assessed as reduction in pronase-mediated MCCC1 degradation at 40 to 80 uM preincubated for 1 hr followed by pronase addition measured after 10 mins by DARTS assay; format: cell-based; details: dose 40-80 µM, time 70.0 min
T1 sequence (whole entry): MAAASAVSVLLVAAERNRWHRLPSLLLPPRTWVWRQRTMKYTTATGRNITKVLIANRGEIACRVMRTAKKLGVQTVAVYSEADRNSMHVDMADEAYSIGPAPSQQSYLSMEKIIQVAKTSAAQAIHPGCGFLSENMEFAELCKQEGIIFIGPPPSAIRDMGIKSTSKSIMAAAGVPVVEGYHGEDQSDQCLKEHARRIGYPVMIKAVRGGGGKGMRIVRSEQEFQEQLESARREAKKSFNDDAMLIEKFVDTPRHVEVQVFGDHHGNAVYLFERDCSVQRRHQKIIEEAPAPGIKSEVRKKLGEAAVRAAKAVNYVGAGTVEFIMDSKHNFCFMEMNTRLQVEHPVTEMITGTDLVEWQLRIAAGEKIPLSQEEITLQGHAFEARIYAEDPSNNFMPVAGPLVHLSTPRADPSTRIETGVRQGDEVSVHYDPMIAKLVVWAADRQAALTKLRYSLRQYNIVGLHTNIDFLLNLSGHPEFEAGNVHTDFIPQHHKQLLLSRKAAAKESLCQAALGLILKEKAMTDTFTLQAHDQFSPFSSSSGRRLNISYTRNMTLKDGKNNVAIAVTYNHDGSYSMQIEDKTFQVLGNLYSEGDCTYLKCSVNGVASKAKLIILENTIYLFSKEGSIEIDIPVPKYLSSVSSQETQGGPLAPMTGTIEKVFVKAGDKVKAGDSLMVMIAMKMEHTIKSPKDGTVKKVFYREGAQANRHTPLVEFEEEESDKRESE

[17] = biological target: T1, Methylcrotonoyl-CoA carboxylase subunit alpha, mitochondrial (Homo sapiens); test: Binding affinity to MCCC1 in human HepG2 cells assessed as thermal stability at 40 uM incubated for 1 hr followed by heat exposure for 3 mins by CETSA; format: cell-based
Mus musculus [18] = test: Hypoglycemic activity in HFD-fed STZ-induced diabetic C57BL/6J mouse model assessed as increase in AKT phosphorylation in liver at 10 to 20 mg/kg, po administered everyday for 3 weeks by Western blot analysis; format: functional, organism-based; details: dose 10-20 mg/kg
Mus musculus [19] = test: Hypoglycemic activity in 12 hr-fasted STZ-induced diabetic C57BL/6J mouse model assessed as decrease in AUC of blood glucose level at 20 mg/kg, po measured upto 120 mins by insulin tolerance test relative to control; format: functional; design: scale not given: the % may be the effect or the level left; details: 2 h
[20] = Toxicity in Sprague-Dawley rat assessed as damage in heart at 20 mg/kg, po for 5 days; format: organism-based; details: in vivo, 120 h, time 5 day
[21] = Solubility of compound in PBS; format: physicochemical
[22] = Toxicity in Sprague-Dawley rat assessed as reduction in number of crypts in colon tissue at 20 mg/kg, po for 5 days; format: organism-based; details: in vivo, 120 h, time 5 day
HepG2 [23] = test: Induction of glucose uptake in human HepG2 cells assessed as increase in GlcN-reduced GSK-3beta phosphorylation at 2.5 to 20 uM preincubated for 1 hr followed by GlcN addition measured after 24 hrs by Western blot analysis; format: functional, cell-based; details: dose 2.5-20 µM, time 25.0 hrs
HepG2 [24] = test: Inhibition of insulin resistance in human HepG2 cells assessed as decrease in GlcN-induced glucose production at 20 uM preincubated for 1 hr followed by GlcN treatment for 18 hrs and subsequent insulin stimulation for 20 mins; format: functional, cell-based; details: time 19.33 hrs
Mus musculus [25] = test: Hypoglycemic activity in HFD-fed STZ-induced diabetic C57BL/6J mouse model assessed as reduction in glucose production at 10 to 20 mg/kg, po administered everyday for 3 weeks; format: functional, organism-based; details: dose 10-20 mg/kg
Mus musculus [26] = test: Hypoglycemic activity in HFD-fed STZ-induced diabetic C57BL/6J mouse model assessed as improvement in total cholesterol level in liver at 10 to 20 mg/kg, po administered everyday for 3 weeks; format: functional, organism-based; details: dose 10-20 mg/kg
HepG2 [27] = test: Induction of glucose uptake in human HepG2 cells assessed as increase in GlcN-reduced AKT phosphorylation at 2.5 to 20 uM preincubated for 1 hr followed by GlcN addition measured after 24 hrs by Western blot analysis; format: functional, cell-based; details: dose 2.5-20 µM, time 25.0 hrs
[28] = Toxicity in Sprague-Dawley rat assessed as damage in liver at 20 mg/kg, po for 5 days; format: organism-based; details: in vivo, 120 h, time 5 day
Mus musculus [29] = test: Hypoglycemic activity in HFD-fed STZ-induced diabetic C57BL/6J mouse model assessed as improvement in triglyceride level in liver at 10 to 20 mg/kg, po administered everyday for 3 weeks; format: functional, organism-based; details: dose 10-20 mg/kg
[30] = Cytotoxicity against human HepG2 cells assessed as cell viability at 80 uM incubated for 24 hrs by CCK8 assay relative to control; format: toxicity, cell-based; details: HepG2 cells, read-out: Activity
HepG2 [31] = test: Induction of glucose uptake in human HepG2 cells assessed as increase in GlcN-reduced GLUT4 level at 2.5 to 20 uM preincubated for 1 hr followed by GlcN addition measured after 24 hrs by Western blot analysis; format: functional, cell-based; details: dose 2.5-20 µM, time 25.0 hrs
HepG2 [32] = test: Inhibition of insulin resistance in human HepG2 cells assessed as decrease in GlcN-induced glucose production at 40 uM preincubated for 1 hr followed by GlcN treatment for 18 hrs and subsequent insulin stimulation for 20 mins in presence of VPA by glucose oxidase-peroxidase assay; format: functional, cell-based; details: time 19.33 hrs
[33] = Toxicity in Sprague-Dawley rat assessed as inflammatory cell infiltration in colon tissue at 20 mg/kg, po for 5 days; format: organism-based; details: in vivo, 120 h, time 5 day

For `C[C@H]1[C@H](C)CC[C@]2(C(=O)NCC(=O)O)CC[C@]3(C)C(=CC[C@@H]4[C@@]5(C)C[C@@H](O)[C@H](O)C(C)(C)[C@@H]5CC[C@]43C)[C@H]12`, the Activity (Mus musculus [1]) was “Active”, the Activity (HepG2 [2]) was “inactive” and the inhibition (HepG2 [3]) was “Active”. For the same compound, the Activity (Mus musculus [4]) was “Active; Activity Similar To Metformin At 200 Mg/Kg”, the inhibition at 20 µM (HepG2 [5]) was 59.5% and the Activity (HepG2 [6]) was “Active”. For the same compound, the Activity (Mus musculus [7]) was “Active”, the Activity (Mus musculus [8]) was “Active” and the Activity [9] was “Non-toxic”. For the same compound, the inhibition (HepG2 [10]) was “inactive”, the Activity (Mus musculus [11]) was “Active” and the Activity [12] was “Non-toxic”. For the same compound, the Activity (Mus musculus [13]) was “Active”, the Activity [14] was “Non-toxic” and the inhibition (HepG2 [15]) was “Active”. For the same compound, the Activity (HEK293) was “Non-toxic”, the Activity [16] was “Active” and the Activity [17] was “Active”. The Activity (Mus musculus [18]) was “Active”, the Activity (Mus musculus [19]) was 19.4% and the Activity [20] was “Non-toxic”. The solubility [21] was 3.98 mM (≈ 2110 µg/mL), the Activity [22] was “Non-toxic” and the Activity (HepG2 [23]) was “Active”. For the same compound, the inhibition (HepG2 [24]) was “Active”, the Activity (Mus musculus [25]) was “Active” and the Activity (Mus musculus [26]) was “Active”. For the same compound, the Activity (HepG2 [27]) was “Active”, the Activity [28] was “Non-toxic” and the Activity (Mus musculus [29]) was “Active”. For the same compound, the viability at 24 h, 80 µM [30] was over 80%, the Activity (HepG2 [31]) was “Active” and the inhibition (HepG2 [32]) was “inactive”. For the same compound, the Activity [33] was “Non-toxic”.
